Test results taken from patent US20260258048A1, “LACTAM-CONTAINING IMIDAZOPYRIDAZINE IL-17 INHIBITOR COMPOUNDS” (Janssen Pharmaceutica NV, priority 2023, published 2026).

System: IL-17A-induced G-CSF production in human normal keratinocyte (NHK)
Test: NHK assay: IL-17A-induced G-CSF production in normal human keratinocytes
Assay type: cell-based
Conditions: Homo sapiens, Keratinocyte, 24 h, IL-17A 5 ng/mL, class of the average IC50 where tested more than once
Description: IL-17A acts directly on keratinocytes through binding to dimeric receptor IL-17RA/RC and drives the production of a number of inflammatory mediators known to be elevated in psoriasis lesional tissue. IL-17A small molecule inhibitors that block the IL-17A to interact with IL-17R would inhibit the IL-17A signaling in its targeted cells such as keratinocytes. The compound functional activity is evaluated for its impact on IL-17A-induced G-CSF production in human normal keratinocyte (NHK).
Adult normal human keratinocytes are cultured in keratinocyte growth medium (Lonza) in a flask till reaching ~90% confluence, then cells are transferred to a 384-well plate at density of 3000-4000 cell/well. Recombinant human IL-17A (Gibco PHC9174) is pre-incubated with titrated compound or DMSO for 1 h at rt then added to the cell culture plate. The final concentration of IL-17A is 5 ng/mL and DMSO is 0.2%, in the culture containing 5% FBS. Cells are cultured/treated for 24 h at 37° C. Supernatants are collected and G-CSF production is measured through HTRF technology using Human G-CSF Kit (CisBio). G-CSF concentration was extrapolated from the standard curve and IC50 is determined using GraphPad Prism. Cell viability is also evaluated using CellTiter-Glo kit (Promega) and effect of compound on cell viability is compared to DMSO control.

| SMILES | IC50 [nM] |
| --- | --- |
| C[C@H]1CNC(=O)[C@@H]1Cc1cnn2cc([C@@H](NC(=O)c3nonc3C3CC3)C3CCC(F)(F)CC3)nc2c1 (relative stereo) [Example 87, 4-Cyclopropyl-N—[(S)-(4,4-difluorocyclohexyl)-[7-[[(3R*,4R*)-4-methyl-2-oxo-pyrrolidin-3-yl]methyl]imidazo[1,2-b]pyridazin-2-yl]methyl]-1,2,5-oxadiazole-3-carboxamide] | > 4000 |
| COC[C@]1(Cc2cnn3cc([C@@H](NC(=O)c4nonc4C4CC4)C4CCC(F)(F)CC4)nc3c2)C[C@@H](C(F)(F)F)NC1=O (single isomer, unassigned) [Example 99] | < 400 |
| Cc1nonc1C(=O)N[C@@H](CCC(C)(C)C(F)(F)F)c1cn2ncc(C[C@H]3C[C@@H](C(F)(F)F)NC3=O)cc2n1 (single isomer, unassigned) [Example 37] | < 400 |
| O=C(N[C@H](c1cn2ncc(CC3CC(C(F)(F)F)CNC3=O)cc2n1)C1CCC(F)(F)CC1)c1nonc1C1CC1 (single isomer, unassigned) [Example 35, 4-Cyclopropyl-N-((1S)-(4,4-difluorocyclohexyl)(7-(((3S*)-2-oxo-5-(trifluoromethyl)piperidin-3-yl)methyl)imidazo[1,2-b]pyridazin-2-yl)methyl)-1,2,5-oxadiazole-3-carboxamide] | 400 to 4000 |
| C[C@@]1(C(F)(F)F)CC(Cc2cnn3cc([C@@H](NC(=O)c4nonc4C4CC4)C4CCC(F)(F)CC4)nc3c2)C(=O)N1 (single isomer, unassigned) [Example 55, 4-Cyclopropyl-N—((S)-(4,4-difluorocyclohexyl(7-(((3S*,5S)-5-methyl-2-oxo-5-(trifluoromethyl)pyrrolidine-3-yl)methyl)imidazo[1,2-b]pyrrolidin-2-yl)methyl)-1,2,5-oxadiazole-3-carboxamide] | < 400 |
| CC(C)(CC[C@H](NC(=O)c1nonc1C1CC1)c1cn2ncc([C@@H](O)[C@@H]3C[C@@H](C(F)(F)F)NC3=O)cc2n1)C(F)(F)F (relative stereo) [Example 67, 4-Cyclopropyl-N—((S)-5,5,5-trifluoro-1-(7-((S*)-hydroxy((3S*,5S)-2-oxo-5-(trifluoromethyl)pyrrolidin-3-yl)methyl)imidazo[1,2-b]pyridazin-2-yl)-4,4-dimethylpentyl)-1,2,5-oxadiazole-3-carboxamide] | > 4000 |
| O=C(N[C@H](c1cn2ncc(C[C@@H]3CC[C@H](C(F)(F)F)NC3=O)cc2n1)C1CCC(F)(F)CC1)c1nonc1C1CC1 (relative stereo) [Example 31, 4-Cyclopropyl-N—((S)-(4,4-difluorocyclohexyl)(7-(((3S*,6R*)-2-oxo-6-(trifluoromethyl)piperidin-3-yl)methyl)imidazo[1,2-b]pyridazin-2-yl)methyl)-1,2,5-oxadiazole-3-carboxamide] | < 400 |
| O=C(N[C@H](c1cn2ncc(C[C@H]3CC[C@H](C(F)(F)F)NC3=O)cc2n1)C1CCC(F)(F)CC1)c1nonc1C1CC1 (relative stereo) [Example 29, 4-Cyclopropyl-N—((S)-(4,4-difluorocyclohexyl)(7-(((3R*,6R*)-2-oxo-6-(trifluoromethyl)piperidin-3-yl)methyl)imidazo[1,2-b]pyridazin-2-yl)methyl)-1,2,5-oxadiazole-3-carboxamide] | 400 to 4000 |
| Cc1nonc1C(=O)N[C@H](c1cn2ncc([C@@](C)(O)[C@@]3(C)C[C@@H](C(F)(F)F)NC3=O)cc2n1)C1CCC(F)(F)CC1 [Example 106, N—((S)-(4,4-Difluorocyclohexyl)(7-((R)-1-hydroxy-1-((3R,5S)-3-methyl-2-oxo-5-(trifluoromethyl)pyrrolidin-3-yl)ethyl)imidazo[1,2-b]pyridazin-2-yl)methyl)-4-methyl-1,2,5-oxadiazole-3-carboxamide] | < 400 |
| C[C@@H]1C[C@@H](Cc2cnn3cc([C@@H](NC(=O)c4nonc4C4CC4)C4CCC(F)(F)CC4)nc3c2)C(=O)N1 (relative stereo) [Example 84, Cyclopropyl-N—((S)-(4,4-difluorocyclohexyl)(7-(((3R*,5R*)-5-methyl-2-oxopyrrolidin-3-yl)methyl)imidazo[1,2-b]pyridazin-2-yl)methyl)-1,2,5-oxadiazole-3-carboxamide] | > 4000 |
| O=C(N[C@H](c1cn2ncc(C[C@H]3C[C@@H](C(F)(F)F)CNC3=O)cc2n1)C1CCC(F)(F)CC1)c1nonc1C1CC1 (relative stereo) [Example 33, 4-Cyclopropyl-N—((S)-(4,4-difluorocyclohexyl)(7-(((3R*,5R*)-2-oxo-5-(trifluoromethyl)piperidin-3-yl)methyl)imidazo[1,2-b]pyridazin-2-yl)methyl)-1,2,5-oxadiazole-3-carboxamide] | 400 to 4000 |
| O=C(N[C@H](c1cn2ncc(C[C@@H]3C(=O)NCC[C@H]3C(F)(F)F)cc2n1)C1CCC(F)(F)CC1)c1nonc1C1CC1 (relative stereo) [Example 3, 4-Cyclopropyl-N—[(S)-(4,4-difluorocyclohexyl)-[7-[[(3S*,4R*)-2-oxo-4-(trifluoromethyl)-3-piperidyl]methyl]imidazo[1,2-b]pyridazin-2-yl]methyl]-1,2,5-oxadiazole-3-carboxamide] | > 4000 |
| CC(C)(CC[C@H](NC(=O)c1nonc1C1CC1)c1cn2ncc(CC3C[C@@](C)(C(F)(F)F)NC3=O)cc2n1)C(F)(F)F (single isomer, unassigned) [Example 57, 4-Cyclopropyl-N—((S)-5,5,5-trifluoro-4,4-dimethyl-1-(7-(((3S*,5S)-5-methyl-2-oxo-5-(trifluoromethyl)pyrrolidin-3-yl)methyl)imidazo[1,2-b]pyridazin-2-yl)pentyl)-1,2,5-oxadiazole-3-carboxamide] | < 400 |
| O=C(N[C@H](c1cn2ncc(C[C@@H]3CC[C@@H](C(F)(F)F)NC3=O)cc2n1)C1CCC(F)(F)CC1)c1nonc1C1CC1 (relative stereo) [Example 32, 4-Cyclopropyl-N—((S)-(4,4-difluorocyclohexyl)(7-(((3S*,6S*)-2-oxo-6-(trifluoromethyl)piperidin-3-yl)methyl)imidazo[1,2-b]pyridazin-2-yl)methyl)-1,2,5-oxadiazole-3-carboxamide] | > 4000 |
| O=C(N[C@H](c1cn2ncc(C[C@H]3CC[C@@H](C(F)(F)F)NC3=O)cc2n1)C1CCC(F)(F)CC1)c1nonc1C1CC1 (relative stereo) [Example 30, 4-Cyclopropyl-N—((S)-(4,4-difluorocyclohexyl)(7-(((3R*,6S*)-2-oxo-6-(trifluoromethyl)piperidin-3-yl)methyl)imidazo[1,2-b]pyridazin-2-yl)methyl)-1,2,5-oxadiazole-3-carboxamide] | > 4000 |
| O=C(N[C@H](c1cn2ncc(C[C@H]3C(=O)NCC[C@@H]3C(F)(F)F)cc2n1)C1CCC(F)(F)CC1)c1nonc1C1CC1 (relative stereo) [Example 4, 4-Cyclopropyl-N—[(S)-(4,4-difluorocyclohexyl)-[7-[[(3R*,4S*)-2-oxo-4-(trifluoromethyl)-3-piperidyl]methyl]imidazo[1,2-b]pyridazin-2-yl]methyl]-1,2,5-oxadiazole-3-carboxamide] | 400 to 4000 |
